The values below are quoted from earlier work in US9266789B2, “Liquid dicyandiamide and/or alkyl thiophosphoric triamide compositions and their use in agricultural applications” (RHODIA OPERATIONS, priority 2012, dated 2016).

`N#CNC(=N)N` [Dicyandiamide, 2-cyanoguanidine]: the solubility in water result was “about 41 g/l”.
